Test results from patent US20260137697A1, “THIAZOLO[5,4-D]PYRIMIDINE COMPOUNDS, COMPOSITIONS COMPRISING THEM AND USES THEREOF” (University de Montreal, priority 2022, published 2026).
pIC50: −log10 of the molar value.

What was measured:
[1] = biological target: T1, BRAF (Homo sapiens, UniProt P15056); test: BRAF kinase activity assay (ADP-Glo); assay type: biochemical; conditions: Table 3; 10 μM ATP, kinase-dead MEK1 substrate
T1 construct: GST; purchased Millipore Sigma B4062-10UG
Procedure: (§1) Compound preparation: solid samples of each substance in 1dram vials were suspended in DMSO (Fisher Scientific) at a stock concentration of 20 mM. Stocks were kept at −20° C. and protected from light. If solubility of the compound at 20 mM appeared to be an issue, the initial concentration of the DMSO stock was changed to 10 mM or 5 mM.
(§2) In vitro enzymatic reactions were used for evaluating compounds intrinsic activity against BRAF, CRAF and ARAF. For BRAF and CRAF, 0.375 nM of purified GST-tagged kinases (cat. No. B4062-10UG and cat. No. R1656-10UG respectively from Millipore Sigma) were incubated with 75 nM of kinase-dead MEK1 substrate (cat. No. 40075; BPS Bioscience) in the presence of 10 μM of Ultrapure ATP (cat. No. V9102; Promega; part V915A) with and without the test compound in a buffer containing 50 mM HEPES pH 7.5, 10 mM MgCl2, 1 mM EDTA, 0.01% Brij-35 and 2 mM DTT. Separate reactions were performed with the MEK1 substrate and ATP as a blank control. ARAF kinase reactions were rigorously the same with the exception that kinase concentration was raised to 3.75 nM (cat. No. 1768-0000-1; Reaction Biology).
(§3) For compound treatment, 5 μL/well of test substance solution are placed in a 384-well proxyplate (Perkin Elmer) and mixed with 2× concentrated kinase reactions. The dilution series is selected so that nine concentrations cover a range from 100 nM to 0.01 nM. […] The final concentration of DMSO in the assay is set at 0.05%.
(§4) BRAF and CRAF kinase reactions were carried out for a total of 2 hours at 30° C. and then stopped by 1/2 dilution in ADP-Glo Reagent (cat. No. V9102; Promega; part V912C). Reactions were then incubated for 1 h at room temperature before addition of one volume of Kinase Detection Reagent (cat. No. V9102; Promega; part V917A). Plates were then equilibrated at room temperature for 30 minutes before detection of luminescence on a Synergy Neo2 plate reader (Biotek). The effect of each compound dilution on BRAF and CRAF kinase activity was expressed as % inhibition and calculated as follows. First, the internal 100% inhibition control (average of luminescence in kinase reactions comprising kinase dead MEK1 substrate alone) was subtracted from each data point. The average of DMSO (vehicle) controls (set as 0% inhibition) was established and used to calculate % inhibition:
(§5) IC50 values were obtained by plotting the kinase inhibition values and fitting the dose-activity curves using a log(agonist) versus response—variable slope (four parameters) function using either GraphPadPrism (V7.0) or Dotmatics Screening Ultra platform. Standards included in the ARAF kinase assay were Belvarafenib (MedChem Express cat. No. HY-109080; CAS No. 1446113-23-0), LXH254 (MedChem Express cat. No. HY-112089; CAS No. 1800398-38-2) and BGB283 (cat. No. HY-18957; CAS No. 1446090-79-4).

[2] = biological target: T2, CRAF (Homo sapiens, UniProt P04049); test: CRAF kinase activity assay (ADP-Glo); assay type: biochemical; conditions: Table 3; 10 μM ATP, kinase-dead MEK1 substrate
T2 construct: fused on or other part: GST tag (N-terminal according to the vendor's product)
Procedure: as §1, §2, §3, §4, §5

[3] = tested on: pERK, HCT116 cells; test: Phospho-ERK inhibition, AlphaLISA p-ERK 1/2, HCT-116; assay type: cell-based, human; conditions: Table 3; for pIC50: HCT116 cells (KRAS G13D), 1 h treatment; for HCT116 pERK (Ymin %): lowest % inhibition value of the pERK IC50 curve, above −20% = no paradoxical induction
Procedure: All cancer cell lines (A375, A101D, A2058, RKO, HT29 SK-MEL 30, IPC298, HepG2, HCT-116, Lovo, SW620, SW480, NCI-H358, NCI-H2122, Calu-6, NCIH2087, NCIH1755, NCIH1666 and Mewo) were obtained from ATCC and cultured in RPM1-1640 medium (Gibco) supplemented with 5% heat inactivated fetal bovine serum (FBS, Wisent) at 37° C. under 5% CO2. Cells were maintained in T175 flasks (Greiner). They were passaged by removing the culture medium, washing once in 10 mL of room temperature Phosphate Buffered Saline (PBS; Wisent) and incubating at 37° C. with 2 mL of 0.05% Trypsin (Thermo-Fisher). Trypsin was then inactivated by adding complete growth medium and the cells were then replated in a T175 culture dish at the appropriate dilution. All cell lines were routinely tested for mycoplasma contamination. Tissue type and mutational status of each cell line can be found in Table B.
(c) Measurement of Phospho-ERK Inhibition in Cultivated Human Cancer Cell Lines by the AlphaLISA® SureFire® Ultra™ p-ERK 1/2 (Thr2O2/Tyr204)
AlphaLISA® SureFire® Ultra™ p-ERK 1/2 (Thr202/Tyr204) analysis was conducted on cells plated in 100 μL of complete RPMI-1640 growth medium in 96-well flat-bottomed transparent dishes (Costar) at a density indicated in Table C. Cells were maintained overnight at 37° C. under 5% CO2 before treatment with compounds' dilution series for one hour. The cell density in cells/cm^2 corresponds to cell number divided by the area of one well of a 96-well plate (0.143 cm^2).
In a dilution series 100 μL/well of test substance dilution prepared in complete RPMI-1640 growth media was added to the cells. The dilution series is selected so that ten concentrations cover a range from 10 μM to 0.33 nM. If necessary, the initial concentration of 10 μM is increased to 100 μM or lowered to 1 μM (as in the case of A375 and H1666 cells, which are generally more sensitive to the compounds) and further dilution is carried out accordingly. The final concentration of DMSO in the assay is set at 0.5%.
After treatment, media was removed, and cells were lysed in 50 μL of 1× AlphaScreen Ultra Lysis Buffer (Perkin Elmer). The AlphaLISA® SureFire® Ultra™ p-ERK 1/2 (Thr202/Tyr204) (PerkinElmer) reactions were performed with 5 μL of cell lysate according to the manufacturer's specifications in 384-well proxyplates (Perkin Elmer) followed by overnight incubation of the reactions at room temperature in a humidified chamber. After completion of the reactions, the signals were recorded on an EnVision plate reader (Perkin Elmer) using built in AlphaLISA® settings.
The effect of each compound dilution on the pERK signal was expressed in % inhibition and calculated as follows. An internal 100% inhibition control (1 μM trametinib, cat. No. HY-10999; MedChem Express; CAS No. 871700-17-3) was included in each plate and used as a measure of pERK background. First, the value obtained for trametinib was subtracted from each data point. The average of DMSO (vehicle) controls (set as 0% inhibition) was established and used to calculate % inhibition:
The ability of each compound to inhibit pERK signal was expressed as an IC50 value obtained by plotting the inhibition values for each data point of a dilution series and fitting the obtained curves using a log(agonist) versus response—variable slope (four parameters) function using GraphPadPrism (V7.0) or Dotmatics Screening Ultra platform.
When present, paradoxical pERK induction is inferred from the negative % inhibition values observed in the pERK IC50 curves of a compound.

T1 sequence (P15056 whole entry): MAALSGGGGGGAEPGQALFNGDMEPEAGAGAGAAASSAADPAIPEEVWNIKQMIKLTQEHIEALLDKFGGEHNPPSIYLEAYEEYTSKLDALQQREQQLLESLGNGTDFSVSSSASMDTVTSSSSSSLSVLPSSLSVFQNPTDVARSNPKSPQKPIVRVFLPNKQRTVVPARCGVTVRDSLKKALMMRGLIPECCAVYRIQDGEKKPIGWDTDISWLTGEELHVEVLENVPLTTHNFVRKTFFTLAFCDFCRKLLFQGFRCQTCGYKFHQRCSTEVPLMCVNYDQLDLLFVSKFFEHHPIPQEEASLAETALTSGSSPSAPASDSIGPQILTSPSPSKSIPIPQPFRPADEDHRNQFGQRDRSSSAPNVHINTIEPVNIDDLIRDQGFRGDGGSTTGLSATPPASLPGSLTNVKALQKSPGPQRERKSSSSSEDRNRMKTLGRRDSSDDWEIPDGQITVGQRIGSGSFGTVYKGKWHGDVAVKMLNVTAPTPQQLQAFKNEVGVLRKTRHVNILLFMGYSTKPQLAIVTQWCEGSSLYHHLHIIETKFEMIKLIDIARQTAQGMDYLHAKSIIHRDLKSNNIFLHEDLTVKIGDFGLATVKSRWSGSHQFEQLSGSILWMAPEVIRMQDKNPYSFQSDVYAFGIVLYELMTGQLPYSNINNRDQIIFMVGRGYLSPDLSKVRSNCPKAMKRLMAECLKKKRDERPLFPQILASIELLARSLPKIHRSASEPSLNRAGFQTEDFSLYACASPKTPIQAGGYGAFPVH
T2 sequence (P04049 whole entry Y340E/Y341E, form open, the tested form may be a part): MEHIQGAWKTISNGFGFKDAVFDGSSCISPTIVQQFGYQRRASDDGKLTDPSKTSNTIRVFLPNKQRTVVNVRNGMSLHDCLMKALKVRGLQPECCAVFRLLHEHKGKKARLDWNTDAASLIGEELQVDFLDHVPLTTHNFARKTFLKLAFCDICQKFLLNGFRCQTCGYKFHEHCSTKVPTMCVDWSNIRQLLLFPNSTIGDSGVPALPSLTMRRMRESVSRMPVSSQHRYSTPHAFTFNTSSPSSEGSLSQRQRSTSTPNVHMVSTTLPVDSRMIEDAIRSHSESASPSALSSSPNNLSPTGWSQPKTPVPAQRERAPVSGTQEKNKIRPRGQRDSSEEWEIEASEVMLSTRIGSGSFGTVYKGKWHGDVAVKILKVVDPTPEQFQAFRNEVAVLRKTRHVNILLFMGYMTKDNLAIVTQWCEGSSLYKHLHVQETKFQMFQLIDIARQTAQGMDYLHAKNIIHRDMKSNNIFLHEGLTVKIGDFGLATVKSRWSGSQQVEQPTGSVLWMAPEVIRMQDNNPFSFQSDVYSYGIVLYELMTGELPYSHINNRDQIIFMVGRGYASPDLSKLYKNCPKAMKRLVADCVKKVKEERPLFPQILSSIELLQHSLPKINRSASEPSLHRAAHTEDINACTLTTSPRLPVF

| Structure (SMILES) | pIC50 [1] | pIC50 [2] | pIC50 [3] | HCT116 pERK (Ymin %) [3] [%] | pIC50 ([3]; Homo sapiens, HCT-116) |
| --- | --- | --- | --- | --- | --- |
| COC[C@@H]1CCCN1c1cccc2c1ncn2-c1nc2c(Nc3c(F)ccc(NS(=O)(=O)c4cccc(Cl)c4Cl)c3F)ncnc2s1 [Example 132] | < 8.00 | < 7.30 | 5.00 to 6.00 | −11 | – |
| O=S(=O)(Nc1ccc(F)c(Nc2ncnc3sc(-n4cnc5c(C(F)(F)F)cccc54)nc23)c1F)c1cccc(Cl)c1Cl [Example 17] | 8.00 to 9.00 | 7.30 to 8.00 | – | – | 5.00 to 6.00 |
| Cc1c(F)cccc1S(=O)(=O)Nc1ccc(F)c(Nc2ncnc3sc(-n4cnc5c(N)cccc54)nc23)c1F [Example 2] | 8.00 to 9.00 | 7.30 to 8.00 | > 6.30 | −1 | – |
| O=S(=O)(Nc1ccc(F)c(Nc2ncnc3sc(-n4cnc5c(F)c(F)ccc54)nc23)c1F)c1cccc(Cl)c1Cl [Example 49] | 8.00 to 9.00 | > 8.00 | – | – | 6.00 to 6.30 |
| O=S(=O)(Nc1ccc(F)c(Nc2ncnc3sc(-n4ccc5ncccc54)nc23)c1F)c1cccc(Cl)c1Cl [Example 115] | 8.00 to 9.00 | > 8.00 | > 6.30 | −11 | – |
| O=S(=O)(Nc1ccc(F)c(Nc2ncnc3sc(-n4cnc5cc(Cl)c(Cl)cc54)nc23)c1F)c1cccc(Cl)c1Cl [Example 47] | 8.00 to 9.00 | 7.30 to 8.00 | – | – | 5.00 to 6.00 |
| C[C@]1(CO)CCCN1C(=O)c1cn(-c2nc3c(Nc4c(F)ccc(NS(=O)(=O)c5cccc(Cl)c5Cl)c4F)ncnc3s2)c2ccccc12 [Example 78] | 8.00 to 9.00 | 7.30 to 8.00 | 6.00 to 6.30 | −14 | – |
| CC(C)(O)[C@@H]1CCN(C(=O)c2cn(-c3nc4c(Nc5c(F)ccc(NS(=O)(=O)c6cccc(Cl)c6Cl)c5F)ncnc4s3)c3ccccc23)C1 [Example 90] | 8.00 to 9.00 | > 8.00 | > 6.30 | −6 | – |
| COC1CCN(c2cccc3c2ncn3-c2nc3c(Nc4c(F)ccc(NS(=O)(=O)c5cccc(Cl)c5Cl)c4F)ncnc3s2)CC1 [Example 139] | 8.00 to 9.00 | 7.30 to 8.00 | > 6.30 | −13 | – |
| Cc1c(F)cccc1S(=O)(=O)Nc1ccc(F)c(Nc2ncnc3sc(-c4cncs4)nc23)c1F [Example 154, N-[2,4-difluoro-3-[(2-thiazol-5-ylthiazolo[5,4-d]pyrimidin-7-yl)amino]phenyl]-3-fluoro-2-methyl-benzenesulfonamide] | < 8.00 | < 7.30 | – | – | 5.00 to 6.00 |
| O=S(=O)(Nc1ccc(F)c(Nc2ncnc3sc(-n4nnc5ccccc54)nc23)c1F)c1cccc(Cl)c1Cl [Example 21] | < 8.00 | 7.30 to 8.00 | 5.00 to 6.00 | −4 | – |
| Nc1ccncc1-c1cccc2c1ncn2-c1nc2c(Nc3c(F)ccc(NS(=O)(=O)c4cccc(Cl)c4Cl)c3F)ncnc2s1 [Example 133] | 8.00 to 9.00 | 7.30 to 8.00 | 5.00 to 6.00 | −12 | – |
| CCC1(O)CN(C(=O)c2cn(-c3nc4c(Nc5c(F)ccc(NS(=O)(=O)c6cccc(Cl)c6Cl)c5F)ncnc4s3)c3ccccc23)C1 [Example 95] | 8.00 to 9.00 | > 8.00 | > 6.30 | −6 | – |
| COc1ccc(S(=O)(=O)Nc2ccc(F)c(Nc3ncnc4sc(-n5cnc6c(C(C)(C)C#N)cccc65)nc34)c2F)c(C)c1Cl [Example 117] | < 8.00 | 7.30 to 8.00 | 6.00 to 6.30 | −15 | – |
| CN1CC2CCC(C1)N2S(=O)(=O)c1cn(-c2nc3c(Nc4c(F)ccc(NS(=O)(=O)c5cccc(Cl)c5Cl)c4F)ncnc3s2)c2ccccc12 [Example 68] | 8.00 to 9.00 | 7.30 to 8.00 | > 6.30 | −6 | – |
| CC(C)(O)[C@@H]1CCCN1C(=O)c1cn(-c2nc3c(Nc4c(F)ccc(NS(=O)(=O)c5cccc(Cl)c5Cl)c4F)ncnc3s2)c2ccccc12 [Example 77] | 8.00 to 9.00 | 7.30 to 8.00 | 6.00 to 6.30 | −5 | – |
| O=S(=O)(Nc1ccc(F)c(Nc2ncnc3sc(-n4cnc5c(C6(CO)CC6)cccc54)nc23)c1F)c1cccc(Cl)c1Cl [Example 143] | 8.00 to 9.00 | > 8.00 | > 6.30 | −8 | – |
| O=S(=O)(Nc1ccc(F)c(Nc2ncnc3sc(-n4cnc5c(-c6cccnc6)cccc54)nc23)c1F)c1cccc(Cl)c1Cl [Example 9] | 8.00 to 9.00 | > 8.00 | 6.00 to 6.30 | −9 | – |
| O=S(=O)(Nc1ccc(F)c(Nc2ncnc3sc(-n4cnc(-c5ccccc5)c4)nc23)c1F)c1cccc(Cl)c1Cl [Example 109] | < 8.00 | < 7.30 | 6.00 to 6.30 | −13 | – |
| O=S(=O)(Nc1ccc(F)c(Nc2ncnc3sc(-n4cnc5c(N6CCN(CCO)CC6)cccc54)nc23)c1F)c1cccc(Cl)c1Cl [Example 152] | > 9.00 | > 8.00 | > 6.30 | 0 | – |
| CN(Cc1ccncc1)S(=O)(=O)c1cn(-c2nc3c(Nc4c(F)ccc(NS(=O)(=O)c5cccc(Cl)c5Cl)c4F)ncnc3s2)c2ccccc12 [Example 11] | 8.00 to 9.00 | > 8.00 | 5.00 to 6.00 | 4 | – |
